Tests used:
Assay type in all cases: in vivo
[1] = system: pigweed (Amaranthus retroflexus); test: Test A preemergence; settings: Amaranthus retroflexus, pre-emergence, 240 h, 0 to 100 scale where 0 is no effect and 100 is complete control, read-out: Pigweed plant response rating
[2] = system: ragweed (common ragweed, Ambrosia elatior); test: Test A preemergence; settings: Ambrosia artemisiifolia, pre-emergence, 240 h, 0 to 100 scale where 0 is no effect and 100 is complete control, read-out: Ragweed plant response rating
Method in brief: (§1)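 Ratings of 0 (no effect) to 100 (complete control) come from visual comparison with untreated controls roughly 10 d after treatment. Test chemicals, formulated in a non-phytotoxic solvent mixture with surfactant, were applied either as a preemergence directed soil spray on seeded soil or postemergence to one- to two-leaf plants 2 to 10 cm tall.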

[3] = system: barnyardgrass (Echinochloa crus-galli); test: Test A preemergence; settings: Echinochloa crus-galli, pre-emergence, 240 h, 0 to 100 scale where 0 is no effect and 100 is complete control, read-out: Barnyardgrass plant response rating
Method in brief: as §1

[4] = system: giant foxtail (Setaria faberii); test: Test A preemergence; settings: Setaria faberi, pre-emergence, 240 h, 0 to 100 scale where 0 is no effect and 100 is complete control, read-out: Foxtail, Giant plant response rating
Method in brief: as §1

[5] = system: ryegrass, Italian (Italian ryegrass, Lolium multiflorum); test: Test A preemergence; settings: Lolium multiflorum, pre-emergence, 240 h, 0 to 100 scale where 0 is no effect and 100 is complete control, read-out: Ryegrass, Italian plant response rating
Method in brief: as §1

Kochia (Kochia scoparia) [6] = test: Test A preemergence; settings: Bassia scoparia, pre-emergence, 240 h, 0 to 100 scale where 0 is no effect and 100 is complete control, read-out: Kochia plant response rating
Method in brief: as §1

[7] = system: sedge, umbrella (small-flower umbrella sedge, Cyperus difformis); test: Test B flooded paddy test; settings: Cyperus difformis, 250 g ai/ha, Flood; 0 to 100 scale where 0 is no effect and 100 is complete control; read-out: Sedge, Umbrella plant response rating
Method in brief: (§2)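 Response scored visually against untreated controls, 0 = no effect and 100 = complete control, 13–15 d after treatment in the greenhouse. Compounds added to paddy water held 3 cm above soil surface. Treatment given at 2-leaf stage.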

[8] = system: ducksalad (Heteranthera limosa); test: Test B flooded paddy test; settings: Heteranthera limosa, 250 g ai/ha, Flood; 0 to 100 scale where 0 is no effect and 100 is complete control; read-out: Ducksalad plant response rating
Method in brief: as §2

[9] = system: barnyardgrass (Echinochloa crus-galli); test: Test B flooded paddy test; settings: Echinochloa crus-galli, 250 g ai/ha, Flood; 0 to 100 scale where 0 is no effect and 100 is complete control; read-out: Barnyardgrass plant response rating
Method in brief: as §2

rice (Oryra sativa) = test: Test B flooded paddy test; settings: Oryza sativa, 250 g ai/ha, Flood; 0 to 100 scale where 0 is no effect and 100 is complete control; read-out: Rice plant response rating
Method in brief: as §2

[10] = system: Galium (catchweed bedstraw, Galium aparine); test: Test A postemergence; settings: Galium, post-emergence, 240 h
Method in brief: as §1

[11] = system: pigweed (Amaranthus retroflexus); test: Test A postemergence; settings: Amaranthus retroflexus, post-emergence, 240 h
Method in brief: as §1

[12] = system: ragweed (common ragweed, Ambrosia elatior); test: Test A postemergence; settings: Ambrosia artemisiifolia, post-emergence, 240 h
Method in brief: as §1

[13] = system: barnyardgrass (Echinochloa crus-galli); test: Test A postemergence; settings: Echinochloa crus-galli, post-emergence, 240 h
Method in brief: as §1

[14] = system: giant foxtail (Setaria faberii); test: Test A postemergence; settings: Setaria faberi, post-emergence, 240 h
Method in brief: as §1

[15] = system: wheat (Triticum aestivum); test: Test A postemergence; settings: Triticum aestivum, post-emergence, 240 h
Method in brief: as §1

[16] = system: blackgrass (Alopecurus myosuroides); test: Test A postemergence; settings: Alopecurus myosuroides, post-emergence, 240 h
Method in brief: as §1

[17] = system: ryegrass, Italian (Italian ryegrass, Lolium multiflorum); test: Test A postemergence; settings: Lolium multiflorum, post-emergence, 240 h
Method in brief: as §1

corn (Zea mays) = test: Test A postemergence; settings: Zea mays, post-emergence, 240 h
Method in brief: as §1

Kochia (Kochia scoparia) [18] = test: Test A postemergence; settings: Bassia scoparia, post-emergence, 240 h
Method in brief: as §1

[19] = 125 g ai/ha, preemergence, approx. 10 d

Structure (SMILES): C=C(C)c1ccc([C@H]2CN(C)C(=O)[C@@H]2C(=O)Nc2ccc(F)c(F)c2F)cc1 [Compound 1148]
- pest or weed control at 31 g/ha ([1]; 31 g ai/ha, Preemergence): 0%
- pest or weed control at 125 g/ha [1, 19]: 0%
- pest or weed control at 31 g/ha ([2]; 31 g ai/ha, Preemergence): 0%
- pest or weed control at 125 g/ha [2, 19]: 0%
- pest or weed control at 31 g/ha ([3]; 31 g ai/ha, Preemergence): 30%
- pest or weed control at 125 g/ha [3, 19]: 90%
- pest or weed control at 31 g/ha ([4]; 31 g ai/ha, Preemergence): 90%
- pest or weed control at 125 g/ha [4, 19]: 90%
- pest or weed control at 31 g/ha ([5]; 31 g ai/ha, Preemergence): 0%
- pest or weed control at 125 g/ha [5, 19]: 20%
- pest or weed control at 31 g/ha (Kochia (Kochia scoparia) [6]; 31 g ai/ha, Preemergence): 0%
- pest or weed control at 125 g/ha (Kochia (Kochia scoparia) [6]; [19]): 0%
- pest or weed control at 250 g/ha [7]: 0%
- pest or weed control at 250 g/ha [8]: 70%
- pest or weed control at 250 g/ha [9]: 50%
- pest or weed control at 250 g/ha (rice (Oryra sativa)): 60%
- pest or weed control at 125 g/ha ([10]; 125 g ai/ha, postemergence, visual injury on 0 to 100 scale (0 no effect, 100 complete control), approx. 10 d, read-out: Galium plant response rating): 40%
- pest or weed control at 31 g/ha ([10]; Postemergence, 31 g ai/ha, visual injury after approx. 10 d, 0 to 100 scale, 0 no effect, 100 complete control, read-out: Plant response rating, Galium): 0%
- pest or weed control at 125 g/ha ([11]; 125 g ai/ha, postemergence, visual injury vs untreated controls after approx. 10 d, 0 = no effect, 100 = complete control, read-out: Pigweed plant response rating (0 to 100 scale)): 20%
- pest or weed control at 31 g/ha ([11]; Postemergence, 31 g ai/ha, visual injury after approx. 10 d, 0 to 100 scale, 0 no effect, 100 complete control, read-out: Plant response rating, Pigweed): 0%
- pest or weed control at 125 g/ha ([12]; 125 g ai/ha, postemergence, visual injury vs untreated controls after approx. 10 d, 0 = no effect, 100 = complete control, read-out: Ragweed plant response rating (0 to 100 scale)): 0%
- pest or weed control at 31 g/ha ([12]; Postemergence, 31 g ai/ha, visual injury after approx. 10 d, 0 to 100 scale, 0 no effect, 100 complete control, read-out: Plant response rating, Ragweed): 0%
- pest or weed control at 125 g/ha ([13]; 125 g ai/ha, postemergence, visual injury on 0 to 100 scale (0 no effect, 100 complete control), approx. 10 d, read-out: Barnyardgrass plant response rating): 80%
- pest or weed control at 31 g/ha ([13]; Postemergence, 31 g ai/ha, visual injury after approx. 10 d, 0 to 100 scale, 0 no effect, 100 complete control, read-out: Plant response rating, Barnyardgrass): 50%
- pest or weed control at 125 g/ha ([14]; 125 g ai/ha, postemergence, visual injury on 0 to 100 scale (0 no effect, 100 complete control), approx. 10 d, read-out: Foxtail, Giant plant response rating): 80%
- pest or weed control at 31 g/ha ([14]; Postemergence, 31 g ai/ha, visual injury after approx. 10 d, 0 to 100 scale, 0 no effect, 100 complete control, read-out: Plant response rating, Foxtail, Giant): 50%
- plant injury at 125 g/ha ([15]; 125 g ai/ha, postemergence, visual injury vs untreated controls after approx. 10 d, 0 = no effect, 100 = complete control, read-out: Wheat plant response rating (0 to 100 scale)): 0%
- plant injury at 31 g/ha ([15]; Postemergence, 31 g ai/ha, visual injury after approx. 10 d, 0 to 100 scale, 0 no effect, 100 complete control, read-out: Plant response rating, Wheat): 0%
- pest or weed control at 125 g/ha ([16]; 125 g ai/ha, postemergence, visual injury on 0 to 100 scale (0 no effect, 100 complete control), approx. 10 d, read-out: Blackgrass plant response rating): 20%
- pest or weed control at 31 g/ha ([16]; Postemergence, 31 g ai/ha, visual injury after approx. 10 d, 0 to 100 scale, 0 no effect, 100 complete control, read-out: Plant response rating, Blackgrass): 0%
- pest or weed control at 125 g/ha ([17]; 125 g ai/ha, postemergence, visual injury vs untreated controls after approx. 10 d, 0 = no effect, 100 = complete control, read-out: Ryegrass, Italian plant response rating (0 to 100 scale)): 0%
- pest or weed control at 31 g/ha ([17]; Postemergence, 31 g ai/ha, visual injury after approx. 10 d, 0 to 100 scale, 0 no effect, 100 complete control, read-out: Plant response rating, Ryegrass, Italian): 0%
- plant injury at 125 g/ha (corn (Zea mays); 125 g ai/ha, postemergence, visual injury on 0 to 100 scale (0 no effect, 100 complete control), approx. 10 d, read-out: Corn plant response rating): 0%
- Corn plant response rating (crop injury, 0 = no effect, 100 = complete kill) at 31 g/ha (corn (Zea mays); Postemergence, 31 g ai/ha, visual injury after approx. 10 d, 0 to 100 scale, 0 no effect, 100 complete control): 0%
- pest or weed control at 125 g/ha (Kochia (Kochia scoparia) [18]; 125 g ai/ha, postemergence, visual injury on 0 to 100 scale (0 no effect, 100 complete control), approx. 10 d, read-out: Kochia plant response rating): 0%
- pest or weed control at 31 g/ha (Kochia (Kochia scoparia) [18]; Postemergence, 31 g ai/ha, visual injury after approx. 10 d, 0 to 100 scale, 0 no effect, 100 complete control, read-out: Plant response rating, Kochia): 0%
